One sequence from article PMC5681922, “Systemic Responses of Multidrug-Resistant Pseudomonas aeruginosa and Acinetobacter baumannii Following Exposure to the Antimicrobial Peptide Cathelicidin-BF Imply Multiple Intracellular Targets” (Frontiers in Cellular and Infection Microbiology, 2017) can be followed below.

No end group written: not given here.

The assay relates to P. aeruginosa 1409. The assay can be described thus: Minimal inhibitory concentration (given as multiples of MIC). It counts as cell-based, Pseudomonas aeruginosa. The settings on record: MDR clinical isolate; MIC itself not given, only this multiple.

For “KFFRKLKKSVKKRAKEFFKKPRVIGVSIPF [cathelicidin-BF]”, the “4 × MIC” value came out at 32 µg/mL.
